# Assays:
# Test in all cases: relative viability (nuclei count vs DMSO), 5 days (fraction); higher = more cells survive
# [1] = compound: C[C@]1(c2nc3c(C(N)=O)cccc3[nH]2)CCCN1 [Veliparib] + Nc1nc2[nH]cc(CCc3ccc(C(=O)N[C@@H](CCC(=O)O)C(=O)O)cc3)c2c(=O)[nH]1 [Pemetrexed] (partner 0.2 µM)
# Outline: (§1)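 Relative viability equals treated-well nuclei counts divided by vehicle-well nuclei counts. Counts came from 4× images of lung cancer cell lines grown in 1536-well plates for 5 days after pin-tool dosing on the day after seeding. Dosing used one drug alone or a fixed anchor-drug dose plus five library-drug doses (not always all listed) in √10 steps, and values are medians of duplicate plates.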
# [2] = compound: COC1=CC=C(C=C1)CN2C=CC3=C2C=C(C=C3)C(=O)NO + CS(=O)(=O)CCNCc1ccc(-c2ccc3ncnc(Nc4ccc(OCc5cccc(F)c5)c(Cl)c4)c3c2)o1 [Lapatinib] (partner 2 µM)
# Outline: as §1
# [3] = compound: COC1=CC=C(C=C1)CN2C=CC3=C2C=C(C=C3)C(=O)NO + CC(=O)Nc1cccc(-n2c(=O)n(C3CC3)c(=O)c3c(Nc4ccc(I)cc4F)n(C)c(=O)c(C)c32)c1 [Trametinib] (partner 0.02 µM)
# Outline: as §1
# [4] = compound: COC1=CC=C(C=C1)CN2C=CC3=C2C=C(C=C3)C(=O)NO + CS(=O)(=O)N1CCN(Cc2cc3nc(-c4cccc5[nH]ncc45)nc(N4CCOCC4)c3s2)CC1 [Pictilisib] (partner 1 µM)
# Outline: as §1
# [5] = compound: C[C@]1(c2nc3c(C(N)=O)cccc3[nH]2)CCCN1 [Veliparib] + CC(=O)Nc1cccc(-n2c(=O)n(C3CC3)c(=O)c3c(Nc4ccc(I)cc4F)n(C)c(=O)c(C)c32)c1 [Trametinib] (partner 0.02 µM)
# Outline: as §1
cell line,measurement,setting,value
SW 1573,relative viability,[1]; first compound 0.06325 µM,0.721
same,relative viability,[1]; first compound 0.2 µM,0.758
same,relative viability,[1]; first compound 0.6325 µM,0.768
same,relative viability,[1]; first compound 2 µM,0.86
same,relative viability,[2]; first compound 0.253 µM,1.07
same,relative viability,[2]; first compound 0.8 µM,1.36
same,relative viability,[2]; first compound 2.53 µM,1.2
same,relative viability,[2]; first compound 8 µM,0.859
same,relative viability,[3]; first compound 0.253 µM,0.539
same,relative viability,[3]; first compound 0.8 µM,0.678
same,relative viability,[3]; first compound 2.53 µM,0.562
same,relative viability,[3]; first compound 8 µM,0.37
same,relative viability,[4]; first compound 0.253 µM,0.478
same,relative viability,[4]; first compound 0.8 µM,0.554
same,relative viability,[4]; first compound 2.53 µM,0.532
same,relative viability,[4]; first compound 8 µM,0.486
same,relative viability,[5]; first compound 0.06325 µM,0.474
same,relative viability,[5]; first compound 0.2 µM,0.52
same,relative viability,[5]; first compound 0.6325 µM,0.513
same,relative viability,[5]; first compound 2 µM,0.548

# Source: the supplement of paper PMC10307832
